From patent publication US20260130933A1, “PHARMACEUTICAL COMPOSITION FOR PREVENTION OR TREATMENT OF NEPHROPATHY AND/OR DIABETES MELLITUS, COMPRISING ENAVOGLIFLOZIN” (DAEWOONG PHARMACEUTICAL CO., LTD., priority 2022, published 2026)

Assay: Example 3: phase 3 trial, enavogliflozin 0.3 mg vs dapagliflozin 10 mg once a day for 24 weeks added to metformin and gemigliptin in patients with type 2 diabetes (same endpoints, rescue drug)
Assay type: in vivo, human
Method: 1) when Metformin (≥1,000 mg/Day) was Administered at a Constant Dose for at Least 8 Weeks Prior to Pre-Visit (Pre-Screening) • Metformin (≥1,000 mg/day) and gemigliptin (50 mg/day) were co-administered during the 8-week stabilization period. […] 4) when Metformin (≥1,000 mg/Day) and Gemigliptin (50 mg/Day) were Co-Administered at Constant Doses for at Least 8 Weeks Prior to Pre-Visit (Prescreening) • Without a separate stabilization period, Pre-visit (pre-screening) was Visit 1 (screening).
Subjects who met the inclusion/exclusion criteria continued to receive metformin and gemigliptin while receiving a placebo of the clinical trial drug in a single-blind (subject-blinded) state for a 2-week run-in period.
Here, the randomized subjects were stratified according to the administration therapy (co-administration with two or less agents (one or two agents) or three or more agents) of a conventional hypoglycemic agent (before washout of another hypoglycemic agent) within 24 weeks prior to obtaining written informed consent and by an HbA1c value (<8% or ≥8%) at Visit 1 (screening) measured in the central laboratory.
The randomized subjects were administered two tablets of the clinical trial drug corresponding to each administration group once a day, and then visited the institution at weeks 6, 12, 18, and 24 during the 24-week administration period to conduct efficacy and safety assessments. In addition, during the clinical trial period, they were instructed to exercise regularly and control their diet without changing their daily life patterns.
• 1) Change in HbA1c at week 24 after administration of clinical trial drug compared to Visit 2 (randomization)
• 1) Change in HbA1c at each time point of weeks 6, 12, and 18 after administration of clinical trial drug compared to Visit 2 (randomization) • 2) Change in FPG at each time point of weeks 6, 12, 18, and 24 after administration of clinical trial drug compared to Visit 2 (randomization) • 3) Proportion of subjects achieving HbA1c<7% at each time point of weeks 6, 12, 18, and 24 after administration of clinical trial drug • 4) Proportion of subjects achieving HbA1c<6.5% at each time point of weeks 6, 12, 18, and 24 after administration of clinical trial drug • 5) Proportion of subjects achieving therapeutic response (HbA1c change (HbA1c at Visit 2—HbA1c at each evaluation time point)>0.5% or HbA1c<7% at each evaluation time point compared to Visit 2 (randomization)) at each time point of weeks 6, 12, 18, and 24 after administration of clinical trial drug • 6) Proportion of subjects achieving therapeutic response (HbA1c change (HbA1c at Visit 2—HbA1c at each evaluation time point)>0.7% or HbA1c<7% at each evaluation time point compared to Visit 2 (randomization)) at each time point of weeks 6, 12, 18, and 24 after administration of clinical trial drug • 7) Proportion of subjects achieving therapeutic response (HbA1c change (HbA1c at Visit 2—HbA1c at each evaluation time point)>1% or HbA1c<7% at each evaluation time point compared to Visit 2 (randomization)) at each time point of weeks 6, 12, 18, and 24 after administration of clinical trial drug

[1] = week 6, modified per-protocol set 1, enavogliflozin 0.3 mg vs dapagliflozin 10 mg
[2] = week 6, modified per-protocol set 1, enavogliflozin 0.3 mg, dapagliflozin 10 mg

OC[C@H]1O[C@@H](c2cc(Cc3ccc(C4CC4)cc3)c(Cl)c3c2CCO3)[C@H](O)[C@@H](O)[C@@H]1O [Enavogliflozin, (2S,3R,4R,5S,6R)-2-(7-chloro-6 (4-cyclopropylbenzyl)-2,3-dihydrobenzofuran-4-yl)-6-(hydroxymethyl)tetrahydro-2H-pyran-3,4,5-triol]
Incidence of adverse events or adverse drug reactions between groups (24 weeks, vs dapagliflozin): no statistically significant differences | HbA1c, Mean (SD) (Baseline, PPS): 7.79% | HbA1c, Median (Baseline, PPS): 7.60% | Non-inferiority (margin 0.35) (HbA1c change at week 24, vs dapagliflozin): not inferior | HbA1c change from baseline, ANCOVA LS mean (SE) (Week 24, PPS): −0.92 % p | HbA1c change from baseline, Mean (SD) (Week 24, PPS): −0.93 % p | HbA1c change from baseline, Median (Week 24, PPS): −0.83 % p | HbA1c, Mean (SD) (Week 24, PPS): 6.86% | HbA1c, Median (Week 24, PPS): 6.76% | HbA1c change from baseline, LS mean difference (Week 24, PPS, enavogliflozin minus dapagliflozin): −0.06 % p | Non-inferiority (UCI < 0.35%) in HbA1c change (Week 24, PPS, enavogliflozin vs dapagliflozin): Yes | FPG change from baseline, LS mean (SE) (week 6): −25.96(1.42) mg/dL | HDL-C change from baseline, LS mean (SE) (week 6): 1.96(0.57) mg/dL | HOMA-IR change from baseline, LS mean (SE) (week 6): −0.94(0.15) | HOMA-β change from baseline, LS mean (SE) (week 6): 8.13(3.08) | HbA1c change from baseline, LS mean (SE) (week 6): −0.73(0.03) % p | LDL-C change from baseline, LS mean (SE) (week 6): 2.49(1.81) mg/dL | UACR change from baseline, LS mean (SE) (week 6): −8.76(3.43) g/kg | UGCR change from baseline, LS mean (SE) (week 6): 58.10(2.18) mg/mg | adiponectin change from baseline, LS mean (SE) (week 6): −0.10 (0.34) μg/mL | body weight change from baseline, LS mean (SE) (week 6): −1.92(0.17) kg | diastolic blood pressure change from baseline, LS mean (SE) (week 6): −2.04(0.70) mmHg | fasting C-peptide change from baseline, LS mean (SE) (week 6): −0.05(0.02) ng/mL | leptin change from baseline, LS mean (SE) (week 6): −1.83(0.45) ng/mL | systolic blood pressure change from baseline, LS mean (SE) (week 6): −2.76(0.90) mmHg | total cholesterol change from baseline, LS mean (SE) (week 6): 5.07 (1.97) mg/dL | triglyceride change from baseline, LS mean (SE) (week 6): −6.85(4.47) mg/dL | FPG change from baseline, LS mean difference (week 6, vs dapagliflozin): -3.24 mg/dL | HDL-C change from baseline, LS mean difference (week 6, vs dapagliflozin): 0.83 mg/dL | HOMA-IR change from baseline, LS mean difference (week 6, vs dapagliflozin): 0.05 | HOMA-β change from baseline, LS mean difference (week 6, vs dapagliflozin): 4.93 | HbA1c change from baseline, LS mean difference (week 6, vs dapagliflozin): −0.03 % p | LDL-C change from baseline, LS mean difference (week 6, vs dapagliflozin): 0.57 mg/dL | Odds ratio for achieving HbA1c<6.5% (week 6, vs dapagliflozin): 0.65 | Odds ratio for achieving HbA1c<7% (week 6, vs dapagliflozin): 1.22 | Odds ratio, therapeutic response (HbA1c change >0.5% or HbA1c<7%) (week 6, vs dapagliflozin): 1.52 | Odds ratio, therapeutic response (HbA1c change >0.7% or HbA1c<7%) (week 6, vs dapagliflozin): 1.16 | Odds ratio, therapeutic response (HbA1c change >1% or HbA1c<7%) (week 6, vs dapagliflozin): 1.38 | UACR change from baseline, LS mean difference (week 6, vs dapagliflozin): 6.09 g/kg | UGCR change from baseline, LS mean difference (week 6, vs dapagliflozin): 12.35 mg/mg | adiponectin change from baseline, LS mean difference (week 6, vs dapagliflozin): -0.47 µg/mL | body weight change from baseline, LS mean difference (week 6, vs dapagliflozin): -0.13 kg | diastolic blood pressure change from baseline, LS mean difference (week 6, vs dapagliflozin): −0.16 mmHg | fasting C-peptide change from baseline, LS mean difference (week 6, vs dapagliflozin): -0.01 ng/mL | leptin change from baseline, LS mean difference (week 6, vs dapagliflozin): 0.20 ng/mL | systolic blood pressure change from baseline, LS mean difference (week 6, vs dapagliflozin): 0.73 mmHg | total cholesterol change from baseline, LS mean difference (week 6, vs dapagliflozin): 2.45 mg/dL | triglyceride change from baseline, LS mean difference (week 6, vs dapagliflozin): -1.46 mg/dL | Change from baseline in HDL-C, ANCOVA LS mean difference [1]: 0.83 mg/dL | Change from baseline in LDL-C, ANCOVA LS mean difference [1]: 0.57 mg/dL | Change from baseline in total cholesterol, ANCOVA LS mean difference [1]: 2.45 mg/dL | Change from baseline in triglycerides, ANCOVA LS mean difference [1]: -1.46 mg/dL | Change from baseline in HDL-C, ANCOVA LS mean [2]: 1.96 mg/dL | Change from baseline in HDL-C, Mean [2]: 1.90 mg/dL | Change from baseline in HDL-C, Median [2]: 2.00 mg/dL | Change from baseline in LDL-C, ANCOVA LS mean [2]: 2.49 mg/dL | Change from baseline in LDL-C, Mean [2]: 2.42 mg/dL | Change from baseline in LDL-C, Median [2]: -1.00 mg/dL | Change from baseline in total cholesterol, ANCOVA LS mean [2]: 5.07 mg/dL | Change from baseline in total cholesterol, Mean [2]: 4.65 mg/dL | Change from baseline in total cholesterol, Median [2]: 3.00 mg/dL | Change from baseline in triglycerides, ANCOVA LS mean [2]: -6.85 mg/dL | Change from baseline in triglycerides, Mean [2]: -4.37 mg/dL | Change from baseline in triglycerides, Median [2]: -1.00 mg/dL | Fasting HDL-C, Mean [2]: 47.99 mg/dL | Fasting HDL-C, Median [2]: 46.00 mg/dL | Fasting LDL-C, Mean [2]: 73.35 mg/dL | Fasting LDL-C, Median [2]: 68.00 mg/dL | Fasting total cholesterol, Mean [2]: 138.43 mg/dL | Fasting triglycerides, Mean [2]: 112.71 mg/dL | Fasting triglycerides, Median [2]: 101.00 mg/dL | fasting Total cholesterol, Median [2]: 134.00 mg/dL
